1 molecule from publication PMC2978906 (Cancer prevention research (Philadelphia, Pa.), 2010) can be followed below.

This test addresses T1, estrogen receptor α (ER-α) (Homo sapiens, UniProt P03372).
T1 sequence (P03372 311-547 limits assumed): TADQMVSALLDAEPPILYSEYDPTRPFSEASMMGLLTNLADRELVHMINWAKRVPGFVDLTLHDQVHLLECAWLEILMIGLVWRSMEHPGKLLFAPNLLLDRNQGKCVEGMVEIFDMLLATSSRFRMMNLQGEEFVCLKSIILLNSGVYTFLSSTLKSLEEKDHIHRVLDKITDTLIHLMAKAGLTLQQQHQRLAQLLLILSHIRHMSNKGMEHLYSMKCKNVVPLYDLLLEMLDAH
Description: LanthaScreen TR-FRET competitive binding assay.

Broadly, the IC50 is the point on the concentration scale where inhibition reaches its midpoint.

For the molecule `CC(C)c1cc2c(c(O)c1O)[C@@]13CCCC(C)(C)[C@@H]1C[C@@H]2OC3=O` [carnosol], the IC50 was found to be 51 µM.
